Reference: patent US20060194815A1, “Methods and compositions for modulating serum cortisol levels” (priority 2003, published 2006)
Entries after “also recorded” stand apart in the source; their conditions may differ.

What was measured:
[1] = system: H295R human adrenal tumor cells; experiment: MTT cell viability / mitochondrial function, H295R cells; format: cell-based; details: H295R cells exposed to dbcAMP
Description: Cell viability at the end of the incubation protocol described above was assessed using the mitochondrial integrity 3-(4,5-dimethylthiazol-2-yl)-2,5-diphenyl tetrazolium bromide (MTT) assay (Trevigen, Gaithersburg, Md.). Briefly, 10 l of the MTT solution were added to the cells in 100 l medium. After an incubation period of 4 hours, 100 l of detergent were added and cells were incubated overnight at 37° C. Formazan blue formation was quantified at 600 nm and 690 nm using the Victor quantitative detection spectrophotometer (EGG-Wallac, Gaithersburg, Md.) and the results expressed as (OD600-OD690).

[2] = system: MA-10 mouse Leydig tumor cells; experiment: dbcAMP-induced progesterone synthesis in MA-10 cells (RIA); format: cell-based
Description: (§1) Culture media were then changed and cells were stimulated with 1 mM dbcAMP and the treatment for 24 to 48 hours. […] The synthesis of 20-OH progesterone and progesterone in Y1 and MA-10 cell media respectively were measured by RIA (Brown et al., 1992). H295R human adrenal tumor cells were seeded in 48-well plates at 10^5 cells/well and incubated for 24 hours. […] At the end of the incubation time period, cells were treated with 1 mM dbcAMP for 48 hours. Cortisol levels in the media were determined by radioimmunoassay as previously described (Amri et al., 1996).

[3] = system: HMG-CoA reductase; experiment: HMG-CoA reductase activity in treated Y1 cells; format: cell-based, mouse; details: increasing concentrations
Description: Cells were washed twice with ice-cold PBS and incubated with ice-cold assay buffer (0.1M sucrose, 40 mM KH2PO4, 30 mM EDTA, 50 mM KCl, 5 mM DTT, 0.25% (v/v) of Brij 96, at pH 7.4) on ice for 20 minutes. After centrifugation for 3 minutes at 14000 g (4° C.) the supernatants were collected and used for HMG-CoA reductase activity assay. The total 150 l assay mixture contained 100-200 g protein and the NADPH-generating system (2.5 mM NADP, 20 mM glucose 6-phosphate and 20 U/ml glucose 6-phosphate dehydrogenase). The reaction was started by adding substrate (^14C-HMG-CoA, 0.1 Ci) and stopped after 45 minutes by adding 10-1 of HCl 6M. ^3H-mevalonolactone was also added to the samples as an extraction recovery marker. After an additional 30 minutes incubation time, to allow complete lactonization of the product, the mixture was centrifuged. The supernatant was applied to Bond-Elut NH2 column and eluted with 1 ml of toluene/acetone (3:1). The eluate was discarded and further 4 ml of toluene/acetone was applied to the column and collected in a scintillation vial for counting ^14C-mevalonate and 3H-mevalonolactone signals (Berkhout et al., 1990).

[4] = system: steroidogenesis acute regulatory protein (StAR); experiment: Immunoblot of StAR protein levels in Y1 cells; format: cell-based, mouse; details: 1 μM procaine, 48 hour treatment, 3 hour dbcAMP
Description: (§2) At the end of the treatment protocol described above, Y1 cells at 90% confluency were washed 2 times with PBS, sonicated 15 seconds in extraction buffer and centrifuged at 18,500 g for 15 minutes at 4° C. Pellets were resuspended in ice-cold lysis buffer (1% Nonidet 40 in extraction buffer), sonicated briefly, and incubated on ice for 1 hour. After centrifugation (22,500 g×30 min, 4° C.), the supernatant was mixed in sample buffer 6× (0.27 M SDS, 0.6 M dithiothreitol, 0.18 M bromphenol blue in 7 ml of 0.5 M Tris-HCl, pH 6.8, and 3 ml glycerol) and boiled for 5 minutes. Proteins were subjected to SDS-PAGE (4-20% gradient SDS polyacrylamide gel) and electrophoretically transferred onto nitrocellulose membranes. The transblot sheets were blocked with 5% non fat dry milk in 25 mM Tris HCl, pH 7.5, 150 mM NaCl, and 0.1% Tween 20 overnight at 4° C. Membranes were then incubated with appropriately diluted primary antibodies 1:800 for anti-P-450SCC (Research Diagnostics Inc. Flanders, N.J.) and 1:200 for anti-StAR (Amri et al., 1996), and the reaction was detected by a peroxidase-conjugated secondary antibody (Santa Cruz Biotechnology, Santa Cruz, Calif.) and enhanced chemiluminescence (Amersham Life, Arlington Heights, Ill.). The densities of the appropriate bands were determined using the OptiQuant Acquisition & Analysis software (Packard BioScience).

[5] = system: Y1 mouse adrenal tumor cells; experiment: dbcAMP-induced 20á-hydroxyprogesterone synthesis in Y1 cells (RIA); format: cell-based
Description: as §1

[6] = system: HMG-CoA reductase mRNA; experiment: HMG-CoA reductase mRNA expression by Q-PCR in Hepa1-6 cells; format: cell-based; details: Hepa1-6 mouse liver hepatoma cells
Description: (§3) After treatment, cells were stimulated with 1 mM dbcAMP for 24 hours. At the end of the incubation, total cell RNA was extracted using. RNA STAT-60 (Tel-Test Inc, Friendswood, Tex.) according to the manufacturer's instructions. HMG-CoA reductase mRNA was quantified by Q-PCR using the ABI Prism 7700 sequence detection system (Perlin-Elmer/Applied Biosystems, Foster City, Calif.). RT reaction was performed using TaqMan® Reverse Transcription Reagents with 1 g total RNA and random hexamers as primers for each reaction according to the manufacturer's instructions. For quantifying mouse HMG-CoA reductase mRNA with Q-PCR, the primers were designed according to GenBank Accession Number BC 019782 using PE/AB Primer Express software, which is specifically designed for the selection of primers and probes. The forward primer was 5′-[…]-3′ (22 nucleotides) and reverse primer was 5′-[…]-3′ (23 nucleotides), respectively. The primers were synthesized by Bio-Synthesis Inc. (Lewisville, Tex.). Reactions were performed in a reaction mixture consisting of a 20 l volume solution containing 10 l SYBR® Green PCR Master Mix and 1 l primers mix (5 M each) with 2 l cDNA.

[7] = system: HMG-CoA reductase mRNA; experiment: HMG-CoA reductase mRNA expression by Q-PCR in UT-1 cells; format: cell-based, Chinese hamster; details: dbcAMP induced
Description: as §3

[8] = system: P-450SCC enzyme; experiment: Immunoblot of P-450SCC enzyme expression in Y1 cells; format: cell-based, mouse; details: Y1 cell extracts
Description: as §2

## CCN(CC)CCOC(=O)c1ccc(N)cc1 [procaine]
[1]
  dbcAMP-induced change of mitochondrial function (MTT): reversed the effect of dbcAMP on mitochondrial function
[1]; listed as Procaine
  dbcAMP-induced change of mitochondrial function (MTT): protected against the dbc-AMP-induced change of mitochondrial function
[2]
  dbcAMP-induced progesterone synthesis: did not affect
[3]
  HMG-CoA reductase activity in treated cells: reduced in a dose-dependent manner
[4]
  levels of the mature 30 kDa StAR protein: did not affect
[4]; listed as Procaine
  levels of the mature 30 kDa StAR protein: had no effect
[5]; Y1 cells, 1 mM dbcAMP, increasing concentrations
  dbcAMP-induced 20á-hydroxyprogesterone production: decreased in a dose-dependent manner
[5]; no dbcAMP stimulus
  basal steroid formation by Y1 cells: without affecting
[6]
  dbcAMP-induced HMG-CoA reductase mRNA levels: inhibited; also recorded: robust
[7]
  inhibition of HMG-CoA reductase mRNA expression: minor and not significant
[8]
  expression of the P-450SCC enzyme (immunoblot): did not modify
